The record followed here is patent publication US20240409558A1, “IRREVERSIBLE INHIBITORS OF KRAS” (BIOMEA FUSION, INC., priority 2021, published 2024).

Each structure is given as a SMILES string.

This experiment relates to human KRAS G12C mutated cell line MIA PaCa-2. The experiment is described as follows: Inhibition of proliferation of MIA PaCa-2 cells (CellTiter-Glo, 7 day). It is filed as cell-based. To be noted: 168 h, Table 4, 7 day, mean, read-out: MIA PaCa-2 IC50 (μM) 7 day Mean. The essentials:
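MIA PaCa-2 cells (RPMI-1640, 10% FBS) seeded at about 1000 cells/well; eight compound concentrations in duplicate added 2 h later, with media and compound refreshed on day 3. ATP-luminescence viability read on day 7 by CellTiter-Glo; % inhibition relative to 0.2% DMSO control.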
(ATP-based viability assays read luminescence as a measure of living cells.)
The term IC50 denotes the midpoint of a concentration-inhibition curve. With `Oc1cccc(Cl)c1-c1cc(F)c2c(N3CCNCC34CC4)nc(OC[C@@]34CCCN3C[C@H](F)C4)nc2c1` [Compound 419, 3-chloro-2-[4-(4,7-diazaspiro[2.5]octan-4-yl)-5-fluoro-2-[[(2R,8S)-2-fluoro-1,2,3,5,6,7-hexahydropyrrolizin-8-yl]methoxy]quinazolin-7-yl]phenol], the IC50 was greater than 1 µM. For the molecule `Oc1cccc(Cl)c1-c1cc(OCC23CCCN2C[C@H](F)C3)c2c(N3CCNCC34CC4)nc(OC[C@@]34CCCN3C[C@H](F)C4)nc2c1` (stereo partly drawn) [Compound 420, 3-chloro-2-[4-(4,7-diazaspiro[2.5]octan-4-yl)-5-[[(2R)-2-fluoro-1,2,3,5,6,7-hexahydropyrrolizin-8-yl]methoxy]-2-[[(2R,8S)-2-fluoro-1,2,3,5,6,7-hexahydropyrrolizin-8-yl]methoxy]quinazolin-7-yl]phenol], the 50% inhibitory concentration (IC50) is greater than 1 µM. Consider `Fc1cc2c(N3CCNC4(CC4)C3)nc(OC[C@@]34CCCN3C[C@H](F)C4)nc2cc1-c1cccc2cccc(Cl)c12` [Compound 421, 7-(8-chloro-1-naphthyl)-4-(4,7-diazaspiro[2.5]octan-7-y1)-6-fluoro-2-[[(2R,8S)-2-fluoro-1,2,3,5,6,7-hexahydropyrrolizin-8-yl]methoxy]quinazoline], for which the IC50 was greater than 1 µM. Regarding `F[C@H]1CN2CCC[C@@]2(COc2cc(N3C[C@H]4C[C@@H]3CN4)c3ncc(-c4cccc5cccc(Cl)c45)cc3n2)C1` [Compound 422, 7-(8-chloro-1-naphthyl)-4-[(1R,4R)-2,5-diazabicyclo[2.2.1]heptan-2-y1]-2-[[(2R,8S)-2-fluoro-1,2,3,5,6,7-hexahydropyrrolizin-8-yl]methoxy]-1,5-naphthyridine], the IC50 was greater than 1 µM.

In the case of `F[C@H]1CN2CCC[C@@]2(COc2nc(N3CC4CCC(C3)N4)c3ccc(-c4cccc5cccc(Cl)c45)cc3n2)C1` [Compound 423], the IC50 was greater than 1 µM.

With `Oc1cc(Cl)c(C2CC2)c(-c2ccc3c(N4C[C@H]5C[C@@H]4CN5)nc(OC[C@@]45CCCN4C[C@H](F)C5)nc3c2F)c1` [Compound 424, 3-chloro-4-cyclopropyl-5-[4-[(1R,4R)-2,5-diazabicyclo[2.2.1]heptan-2-y1]-8-fluoro-2-[[(2R,8S)-2-fluoro-1,2,3,5,6,7-hexahydropyrrolizin-8-yl]methoxy]quinazolin-7-yl]phenol], the half-maximal inhibitory concentration (IC50) was greater than 1 µM. With `Oc1cc(Cl)c(C2CC2)c(-c2ccc3c(N4CCNCC45CC5)nc(OC[C@@]45CCCN4C[C@H](F)C5)nc3c2F)c1` [Compound 425, 3-chloro-4-cyclopropyl-5-[4-(4,7-diazaspiro[2.5]octan-4-yl)-8-fluoro-2-[[(2R,8S)-2-fluoro-1,2,3,5,6,7-hexahydropyrrolizin-8-yl]methoxy]quinazolin-7-y1]phenol], the IC50 was 0.607 µM.

Take `C[C@@H]1CNCCN1c1nc(OC[C@@]23CCCN2C[C@H](F)C3)nc2cc(-c3c(O)cccc3C3CC3)c(F)cc12` [Compound 426]: the IC50 is greater than 1 µM. The figure for `Cn1ccnc1-c1c(F)cccc1-c1cnc2c(N3CC4CCC(C3)N4)nc(OC[C@@]34CCCN3C[C@H](F)C4)nc2c1` [Compound 427, 4-(3,8-diazabicyclo[3.2.1]octan-3-yl)-2-[[(2R,8S)-2-fluoro-1,2,3,5,6,7-hexahydropyrrolizin-8-yl]methoxy]-7-[3-fluoro-2-(1-methylimidazol-2-yl)phenyl]pyrido[3,2-d]pyrimidine] is greater than 1 µM. In the case of `Oc1cc(Cl)c(C2CC2)c(-c2ccc3c(N4CC5CCC(C4)N5)nc(OC[C@@]45CCCN4C[C@H](F)C5)nc3c2)c1` [Compound 428, 3-chloro-4-cyclopropyl-5-[4-(3,8-diazabicyclo[3.2.1]octan-3-y1)-2-[[(2R,8S)-2-fluoro-1,2,3,5,6,7-hexahydropyrrolizin-8-yl]methoxy]quinazolin-7-yl]phenol], the IC50 was greater than 1 µM. On to `Oc1cc(Cl)c(C2CC2)c(-c2ccc3c(N4CC5CCC(C4)N5)cc(OC[C@@]45CCCN4C[C@H](F)C5)nc3c2F)c1` [Compound 429, 3-chloro-4-cyclopropyl-5-[4-(3,8-diazabicyclo[3.2.1]octan-3-yl)-8-fluoro-2-[[(2R,8S)-2-fluoro-1,2,3,5,6,7-hexahydropyrrolizin-8-y1]methoxy]-7-quinolyl]phenol], for which the IC50 is greater than 1 µM. For the molecule `Oc1cc(Cl)c(C2CC2)c(-c2ccc3c(C4CCNCC4)nc(OC[C@@]45CCCN4C[C@H](F)C5)nc3c2F)c1` [Compound 430, 3-chloro-4-cyclopropyl-5-[8-fluoro-2-[[(2R,8S)-2-fluoro-1,2,3,5,6,7-hexahydropyrrolizin-8-yl]methoxy]-4-(4-piperidyl)quinazolin-7-yl]phenol], the IC50 is 0.983 µM. Regarding `OC1Cc2cccc(Cl)c2N(c2ncc3c(N4CC5CCC(C4)N5)nc(OC[C@@]45CCCN4C[C@H](F)C5)nc3c2F)C1` (stereo partly shown) [Compound 432], the IC50 was greater than 1 µM. For the molecule `Oc1cc(Cl)c(C2CC2)c(-c2ncc3c(C4CCNCC4)nc(OC[C@@]45CCCN4C[C@H](F)C5)nc3c2F)c1` [Compound 433], the IC50 was greater than 1 µM. Take `CC(C)C(O)CN1C2CCC1CN(c1nc(OC[C@@]34CCCN3C[C@H](F)C4)nc3c(F)c(-c4cc(O)cc(Cl)c4C4CC4)ncc13)C2` (stereo partly shown) [Compound 434]: the IC50 was greater than 1 µM. In the case of `Oc1cc(-c2ncc3c(C4CCNCC4)nc(OC[C@@]45CCCN4C[C@H](F)C5)nc3c2F)c2c(F)c(F)ccc2c1` [Compound 435, 5,6-difluoro-4-[8-fluoro-2-[[(2R,8S)-2-fluoro-1,2,3,5,6,7-hexahydropyrrolizin-8-yl]methoxy]-4-(4-piperidyl)pyrido[4,3-d]pyrimidin-7-yl]naphthalen-2-ol], the IC50 was greater than 1 µM.

As to `C=C1CCN(c2nc(OC[C@@]34CCCN3C[C@H](F)C4)nc3c(F)c(-c4cc(O)cc(Cl)c4C4CC4)ncc23)CC1` [Compound 436, 3-chloro-4-cyclopropyl-5-[8-fluoro-2-[[(2R,8S)-2-fluoro-1,2,3,5,6,7-hexahydropyrrolizin-8-yl]methoxy]-4-(4-methylene-1-piperidyl)pyrido[4,3-d]pyrimidin-7-yl]phenol], the 50% inhibitory concentration (IC50) was greater than 1 µM. Consider `Oc1cc(Cl)c(C2CC2)c(-c2ncc3c(N4CCC5(CC4)CO5)nc(OC[C@@]45CCCN4C[C@H](F)C5)nc3c2F)c1` [Compound 437, 3-chloro-4-cyclopropyl-5-[8-fluoro-2-[[(2R,8S)-2-fluoro-1,2,3,5,6,7-hexahydropyrrolizin-8-yl]methoxy]-4-(1-oxa-6-azaspiro[2.5]octan-6-yl)pyrido[4,3-d]pyrimidin-7-yl]phenol], for which the IC50 is greater than 1 µM. Take `Oc1cc(Cl)c(C2CC2)c(-c2ncc3c(N4CCC5(CC4)CN5)nc(OC[C@@]45CCCN4C[C@H](F)C5)nc3c2F)c1` [Compound 438, 3-chloro-4-cyclopropyl-5-[4-(1,6-diazaspiro[2.5]octan-6-yl)-8-fluoro-2-[[(2R,8S)-2-fluoro-1,2,3,5,6,7-hexahydropyrrolizin-8-yl]methoxy]pyrido[4,3-d]pyrimidin-7-yl]phenol]: the IC50 came to 0.229 µM. Take `C[C@H]1CC(c2nc(OC[C@@]34CCCN3C[C@H](F)C4)nc3c(F)c(-c4cc(O)cc5ccc(F)c(F)c45)ncc23)CCN1` (stereo partly drawn) [Compound 439, 5,6-difluoro-4-[8-fluoro-2-[[(2R,8S)-2-fluoro-1,2,3,5,6,7-hexahydropyrrolizin-8-yl]methoxy]-4-[(2S)-2-methyl-4-piperidyl]pyrido[4,3-d]pyrimidin-7-yl]naphthalen-2-ol]: the IC50 was greater than 1 µM.

For the molecule `C[C@@H]1CC(c2nc(OC[C@@]34CCCN3C[C@H](F)C4)nc3c(F)c(-c4cc(O)cc5ccc(F)c(F)c45)ncc23)CCN1` (stereo partly drawn) [Compound 440, 5,6-difluoro-4-[8-fluoro-2-[[(2R,8S)-2-fluoro-1,2,3,5,6,7-hexahydropyrrolizin-8-yl]methoxy]-4-[(2R)-2-methyl-4-piperidyl]pyrido[4,3-d]pyrimidin-7-yl]naphthalen-2-ol], the 50% inhibitory concentration (IC50) worked out at 3.65 µM. For the molecule `CCC1(c2nc(OC[C@@]34CCCN3C[C@H](F)C4)nc3c(F)c(-c4cc(O)cc(Cl)c4C4CC4)ncc23)CCNCC1` [Compound 441], the IC50 was greater than 1 µM.

`CC1(c2nc(OC[C@@]34CCCN3C[C@H](F)C4)nc3c(F)c(-c4cc(O)cc(Cl)c4C4CC4)ncc23)CCNCC1` [Compound 442, 3-chloro-4-cyclopropyl-5-[8-fluoro-2-[[(2R,8S)-2-fluoro-1,2,3,5,6,7-hexahydropyrrolizin-8-yl]methoxy]-4-(4-methyl-4-piperidyl)pyrido[4,3-d]pyrimidin-7-yl]phenol]: the IC50 is 8.87 µM. Turning to `Oc1cc(-c2ncc3c(C4CC5CCC(C4)N5)nc(OC[C@@]45CCCN4C[C@H](F)C5)nc3c2F)c2c(F)c(F)ccc2c1` (stereo partly drawn) [Compound 443, 4-[4-(8-azabicyclo[3.2.1]octan-3-yl)-8-fluoro-2-[[(2R,8S)-2-fluoro-1,2,3,5,6,7-hexahydropyrrolizin-8-yl]methoxy]pyrido[4,3-d]pyrimidin-7-y1]-5,6-difluoro-naphthalen-2-ol], the half-inhibitory concentration (IC50) was greater than 1 µM. `CC1(c2nc(OC[C@@]34CCCN3C[C@H](F)C4)nc3c(F)c(-c4cc(O)cc5ccc(F)c(F)c45)ncc23)CCNCC1` [Compound 444]: the IC50 worked out at 6.74 µM.
